Measured values from patent publication US7928143B2, “Method for preventing and/or treating neurodegenerative diseases” (Ono Pharmaceutical Co., Ltd., priority 2003, dated 2011).

Columns and labels:
Assay type in all cases: in vivo, human
[1] = test system: patients with cerebral infarction at the acute phase (within 72 hours after onset of the disease); test: Clinical test Example 1: randomization test at two doses, efficacy by Rankin Scale and Glasgow Outcome Scale; conditions: 4 mg/kg/h vs 0.4 mg/kg/h group, 1 h continuous i.v. once a day for 7 days, cases with JSS≦15 before administration, three months after commencement of administration
Procedure: (§1) As a clinical test, a randomization test was carried out on patients with cerebral infarction at the acute phase (within 72 hours after onset of the disease), at two doses under the following conditions. • Object: 97 patients in the acute phase cerebral infarction. • Administration method and dosage: 1 hour of continuous intravenous administration once a day in each group; • (1) (2R)-2-propyloctanoic acid: 0.4 mg/kg/h; • (2) (2R)-2-propyloctanoic acid: 4 mg/kg/h. • Administration period: 7 days • The Number of Cases: • (1) (2R)-2-propyloctanoic acid 0.4 mg/kg/h administered group: 51 patients; • (2) (2R)-2-propyloctanoic acid 4 mg/kg/h administered group: 46 patients. Evaluation Items: Main Evaluation Items <Efficacy Evaluation Items> (1) Rankin Scale (RS)
Evaluation method: Symptoms of patients were scored by classifying them into the following grades of Table 1.
(2) Glasgow Outcome Scale (GOS)
Evaluation method: Symptoms of patients were scored by classifying them into the following grades of Table 2.
(§2) <Safety Evaluation Item> • Frequency of adverse matters and the contents thereof (symptoms, causal relation and the like): • Analysis: Therapeutic effects by continuous intravenous administration of (2R)-2-propyloctanoic acid were evaluated based on the above main evaluation items. • Results: The results are shown below. <Efficacy Evaluation Item>

[2] = test system: patients with cerebral infarction at the acute phase (within 72 hours after onset of the disease); test: Clinical test Example 1: safety evaluation (frequency of adverse matters and contents); conditions: i.v. 7 days, causal relation to the test drug was denied
Procedure: as §1, §2

[3] = test system: patients with cerebral infarction at the acute phase (within 24 hours after onset of the disease); test: Clinical test Example 2: double blind placebo-controlled test, efficacy by modified Rankin Scale; conditions: 8 mg/kg/h administration group, 1 h continuous i.v. once a day for 7 days; 40 days after commencement of administration; statistically significant vs placebo (32.5%)
Procedure: (§3) As a clinical test, a double blind test was carried out using patients with cerebral infarction at the acute phase (within 24 hours after onset of the disease) under the following conditions by (2R)-2-propyloctanoic acid administration groups (6 varied doses) and a placebo administration group. • Object: 92 patients in the acute phase cerebral infarction. • Administration method and dosage: 1 hour of continuous intravenous administration once a day in each group; • (1) (2R)-2-propyloctanoic acid: 2 mg/kg/h; • (2) (2R)-2-propyloctanoic acid: 4 mg/kg/h; • (3) (2R)-2-propyloctanoic acid: 6 mg/kg/h; • (4) (2R)-2-propyloctanoic acid: 8 mg/kg/h; • (5) (2R)-2-propyloctanoic acid: 10 mg/kg/h; • (6) (2R)-2-propyloctanoic acid: 12 mg/kg/h; • (7) placebo. • Administration period: 7 days • The Number of Cases: • (1) (2R)-2-propyloctanoic acid 2 mg/kg/h administered group: 9 patients; • (2) (2R)-2-propyloctanoic acid 4 mg/kg/h administered group: 8 patients; • (3) (2R)-2-propyloctanoic acid 6 mg/kg/h administered group: 8 patients; • (4) (2R)-2-propyloctanoic acid 8 mg/kg/h administered group: 8 patients; • (5) (2R)-2-propyloctanoic acid 10 mg/kg/h administered group: 8 patients; • (6) (2R)-2-propyloctanoic acid 12 mg/kg/h administered group: 8 patients; • (7) placebo administered group: 43 patients. […]

[4] = test system: serum S-100β; test: Clinical test Example 2: serum S-100β content (SMART S100 ELISA Kit); conditions: administered groups (2 to 12 mg/kg/h, i.v. 7 days) in comparison with placebo group; particularly remarkable on and after 3 days; FIG. 3
Procedure: as §3

[5] = test system: patients with cerebral infarction at the acute phase (within 24 hours after onset of the disease); test: Clinical test Example 2: safety evaluation (adverse matters and clinical test values); conditions: administration group (2 to 12 mg/kg/h, i.v. 7 days)
Procedure: As a clinical test, a double blind test was carried out using patients with cerebral infarction at the acute phase (within 24 hours after onset of the disease) under the following conditions by (2R)-2-propyloctanoic acid administration groups (6 varied doses) and a placebo administration group. • Object: 92 patients in the acute phase cerebral infarction. • Administration method and dosage: 1 hour of continuous intravenous administration once a day in each group; • (1) (2R)-2-propyloctanoic acid: 2 mg/kg/h; • (2) (2R)-2-propyloctanoic acid: 4 mg/kg/h; • (3) (2R)-2-propyloctanoic acid: 6 mg/kg/h; • (4) (2R)-2-propyloctanoic acid: 8 mg/kg/h; • (5) (2R)-2-propyloctanoic acid: 10 mg/kg/h; • (6) (2R)-2-propyloctanoic acid: 12 mg/kg/h; • (7) placebo. • Administration period: 7 days • The Number of Cases: • (1) (2R)-2-propyloctanoic acid 2 mg/kg/h administered group: 9 patients; • (2) (2R)-2-propyloctanoic acid 4 mg/kg/h administered group: 8 patients; • (3) (2R)-2-propyloctanoic acid 6 mg/kg/h administered group: 8 patients; • (4) (2R)-2-propyloctanoic acid 8 mg/kg/h administered group: 8 patients; • (5) (2R)-2-propyloctanoic acid 10 mg/kg/h administered group: 8 patients; • (6) (2R)-2-propyloctanoic acid 12 mg/kg/h administered group: 8 patients; • (7) placebo administered group: 43 patients. Evaluation Items: Main Evaluation Items <Efficacy Evaluation Items> (1) Modified Rankin Scale (mRS)
Adverse Matters and Clinical Test Values
• Analysis: Therapeutic effects by continuous intravenous administration of (2R)-2-propyloctanoic acid was evaluated based on the above main evaluation items. • Results: The results are shown below. <Efficacy Evaluation Item>

In the case of CCCCCC[C@@H](CCC)C(=O)O [(2R)-2-propyloctanoic acid], the “ratio of occupying the category of improvement by RS (Rankin Scale)” value ([1]; FIG. 1) is reported as “statistically significant differences were found”, the “ratio of occupying the category of improvement by GOS (Glasgow Outcome Scale)” value ([1]; FIG. 2) is reported as “statistically significant differences were found” and the cases of death ([2]; 0.4 mg/kg/h administration group) is reported as 3 cases. For the same compound, the cases of death ([2]; 4 mg/kg/h administration group) was 4 cases, the “ratio occupied by a score of 2 or less (category of good improvement) on modified Rankin Scale (mRS)” value [3] was 87.5% and the “serum S-100β content during the administration period” value [4] was “tendency of inhibiting increase of the serum S-100β content”. For the same compound, the Serious adverse matters ([5]; causal relation to the test drug was denied, placebo 12 cases) was 10 cases, the “Frequency of the adverse matters (side effects) whose causal relation to the test drug was not denied” value ([5]; placebo 39.5%, no difference) was 42.9% and the “Frequency of the adverse matters” value ([5]; placebo 100%, no difference) was 98%.
